According to patent US20210060058A1, “COMPOSITIONS AND METHODS FOR TREATING HYDROGEN SULFIDE-MEDIATED HYPERDYNAMIC CIRCULATION” (priority 2019, published 2021):
Like-named read-outs stand apart in the source and are kept apart here.

Tests used:
[1] = system: Desulfovibrio vulgaris (DSV); assay: Production of hydrogen sulfide gas by DSV in the culture system; type: cell-based; conditions: molybdate at 10 μM, 50 μM, and 1 mM; dose dependent
Text: FIG. 9. Effect of molybdate on the production of hydrogen sulfide gas measured in parts per billion (ppb) in the culture system.

[2] = system: Desulfovibrio vulgaris (DSV); conditions: 14 hours
Text: FIG. 8. Effect of molybdate on growth of Desulfovibrio vulgaris (DSV) on a culture plate.

rats = assay: Portal vein flow during 20-minute jejunal NaHS infusion in rats fed MgO diet; type: in vivo, rat
Text: FIG. 7. Portal venous flow recordings over 20-minute infusion of NaHS in two groups: Standard-diet-fed rats and Magnesium Oxide (MgO)-fed rats. Vehicle group shown as control; standard diet fed rats followed by water infusion. All measurements shown as percent change from baseline to accommodate for compensate for variation in baseline data; data shown as percent change±SEM. Baseline flow measurements recorded and average (shown as time 0) for each group. […] No difference is noted between MgO diet group and vehicle.
Rats were divided into three groups: Magnsium Oxide (MgO) diet, 500 mg MgO per 100 g chow, with NaHS infusion into small intestine (jejunim); standard diet with NaHS infusion into jejunum; and standard diet with control (vehicle) infusion into jejunim. Diets were administered for three days total. At the end of diet treatment, rats underwent surgery to measure porta vein flow before and after infusion of small intestine (jejunum) sodium hydrosulfide (NaHS), a hydrogen sulfide donor. Portal vein blood flow was recorded at baseline for 10 minutes and throughout 20-minute infusion periods. Data reported as percent change from baseline; infusion started at minute 1 of data shown. Blood flow data are reported as mean percent baseline change+/−SEM and were compared by 2-way RM-ANOVA.

SMILES	Generation of H2S gas by DSV (ppb) [1]	Growth of DSV ([2]; molybdate at 10 μM, 50 μM, and 1 mM, dose-dependent)	Growth of DSV ([2]; molybdate at 1 mM)	Portal venous flow (percent change from baseline), MgO diet group versus vehicle (rats; 500 mg MgO per 100 g chow for three days, 20-minute NaHS infusion, vehicle = standard diet, water infusion)	Portal vein blood flow, MgO diet group versus other two groups (rats; at minutes 20 of infusion)
[O]=[Mo](=[O])([O-])[O-] [molybdate]	suppressed the generation of H2S gas	suppressed the growth	completely suppressing the growth		
[O]=[Mg] [MgO, Magnesium Oxide]				No difference	Statistical significant difference
